The text below walks through data of the SangsterLogP compilation.

As for `CC(C)NCCCC1(C(N)=O)c2ccccc2-c2ccccc21`, the logP (in general, the decadic logarithm of the partition coefficient of the neutral form, usually between octanol and water) came to 3.11.
Compound `CN1CCN(CCCN2c3ccccc3Sc3ccccc32)CC1` returned a lipophilicity (logP) of 4.
`C=CCN1CCCC1CNC(=O)c1cc(S(=O)(=O)NC)c(N)cc1OC` (stereo not drawn) yielded a lipophilicity (logP) of 1.69.
Under `CCN(CC)CCCN(c1ccccc1)C1Cc2ccccc2C1` stands 4.86.
Compound `COc1ccc2c(c1)-c1c(ccc(OC)c1O)CC(CCc1ccccc1)N(C)CC2` (stereo not drawn) returned a logP of 4.85.
For `C=CCN1CCCC1CNC(=O)c1cc(S(N)(=O)=O)cc(OC)c1OC` (stereo not drawn), the logP is 1.47.
Under `CN1CCCCC1CCN1c2ccccc2Sc2ccc(S(C)(=O)=O)cc21` (stereo not drawn) stands 4.45; under `O=C(NCC1CCCCN1)c1cc(OCC(F)(F)F)ccc1OCC(F)(F)F` (stereo not drawn), 3.78; under `CCN(CC)CCNC(=O)c1ccc(N)cc1`, 0.82.
`CNC(=O)Nc1c(OCCN2CCCC2)c(OC)c2occc2c1OC` had a logP of 1.38.
Then `CC(C)(C)c1cc(C(O)CCC2CCNCC2)c2ccccc2n1` (stereo not drawn), with 3.63; and `CC(C)NCC(O)COc1cccc2c1N(C(=O)c1cccnc1)CCC2` (stereo not drawn), with 1.63.
Compound `CN(C)CCCN1c2ccccc2Sc2ccccc21` gave a logP of 4.64.
